Laboratory results: patent US11197904B2, “Pharmaceutical compositions for preventions and managements of dementia, infectious diseases, cancers, periodontitis, dental caries, diabetes, obesity, osteoporosis and chronic pain and methods thereof” (Chung Shan Medical University, priority 2018, dated 2021)
In brackets after ≈: the same amount, converted by molar mass. Read-outs that look alike come from different tables or passages of the source. Marks after values point to notes of the source that are not given here.

What was measured:
[1] = tested on: Porphyromonas gingivalis (P.g.); test: microbe, parasite or virus in culture; conditions: read-out: IC50, 50% inhibition on bacterial proliferation, P. g.
[2] = tested on: Streptococcus mutans (S.m., UA159); test: microbe, parasite or virus in culture; conditions: read-out: IC50, 50% inhibition on bacterial proliferation, UA159
[3] = tested on: Pseudomonas aeruginosa (P.a.); test: microbe, parasite or virus in culture; conditions: read-out: IC50, 50% inhibition on bacterial proliferation, P. a.
[4] = tested on: Staphylococcus aureus (S.a); test: microbe, parasite or virus in culture; conditions: read-out: IC50, 50% inhibition on bacterial proliferation, S. a.
[5] = tested on: Porphyromonas gingivalis (P.g.); conditions: for IC50, 50% inhibition on bacterial proliferation, P. g.: single agent
[6] = tested on: Streptococcus mutans (S.m., UA159); conditions: for IC50, 50% inhibition on bacterial proliferation, UA159: single agent
[7] = tested on: Pseudomonas aeruginosa (P.a.); conditions: for IC50, 50% inhibition on bacterial proliferation, P. a.: single agent
[8] = tested on: Staphylococcus aureus (S.a); conditions: for IC50, 50% inhibition on bacterial proliferation, S. a.: single agent
[9] = tested on: Lactobacillus reuteri (L.r.); test: Proliferation of the probiotic Lactobacillus reuteri (OD600); assay type: cell-based
[10] = 3 to 10 times higher than the listed IC50, Table 1
[11] = read-out: IC50, P. g., metals alone
[12] = read-out: IC50 of single drug, Table 14, P. g., drug alone
[13] = read-out: IC50, UA159, metals alone
[14] = read-out: IC50 of single drug, Table 14, UA159, drug alone
[15] = read-out: IC50, P. a., metals alone
[16] = read-out: IC50, S. a., metals alone

Question: How did the IC50 [1] turn out when `[H]/N=C(/N)N[C@H]1[C@H](O)[C@@H](O)[C@H](O[C@@H]2O[C@@H](C)[C@](O)(C=O)[C@H]2O[C@@H]2O[C@@H](CO)[C@H](O)[C@@H](O)[C@@H]2NC)[C@@H](N/C(N)=N\[H])[C@@H]1O` [Streptomycin] was run?
Answer: The IC50 was 9 µg/mL (≈ 15.5 µM).

Question: What about the IC50 [2] of the same compound?
Answer: The IC50 was 21 µg/mL (≈ 36.1 µM).

Question: What about the IC50 [3] of the same compound?
Answer: Its IC50 is 5 µg/mL (≈ 8.6 µM).

Question: What about the IC50 [4] of the same compound?
Answer: The IC50 was 0.2 µg/mL (≈ 0.344 µM).

Question: For `CCCCCCc1ccc(O)cc1O` [4-Hexyl-Resorcinol], which IC50 [1] is on record?
Answer: The IC50 was 20 µg/mL (≈ 103 µM).

Question: What about the IC50 [2] of the same compound?
Answer: Its IC50 is 15 µg/mL (≈ 77.2 µM).

Question: And the IC50 [3]?
Answer: Its IC50 is greater than 100 µg/mL.

Question: And the IC50 [4]?
Answer: Its IC50 is 32 µg/mL (≈ 165 µM).

Question: How did the “IC50, 50% inhibition on bacterial proliferation, P. g.” value (shortened to “IC50, 50% inhibition … P. g.”) [5] turn out when Phospholipase A2 was run?
Answer: The value was greater than 10 µg/mL.

Question: What about the “IC50, 50% inhibition on bacterial proliferation, UA159” value (shortened to “IC50, 50% inhibition … UA159”) [6] of the same compound?
Answer: The value was greater than 10 µg/mL.

Question: What about the “IC50, 50% inhibition on bacterial proliferation, P. a.” value (shortened to “IC50, 50% inhibition … P. a.”) [7] of the same compound?
Answer: Its value is greater than 10 µg/mL.

Question: What about the “IC50, 50% inhibition on bacterial proliferation, S. a.” value (shortened to “IC50, 50% inhibition … S. a.”) [8] of the same compound?
Answer: Its value is greater than 10 µg/mL.

Question: What does the source list for protamine?
Answer: IC50, 50% inhibition on bacterial proliferation, P. g. [5]: 31 µg/mL; IC50, 50% inhibition on bacterial proliferation, UA159 [6]: >100 µg/mL; IC50, 50% inhibition on bacterial proliferation, P. a. [7]: >100 µg/mL; IC50, 50% inhibition on bacterial proliferation, S. a. [8]: >100 µg/mL

Question: For `NNC(=O)c1ccncc1` [Isoniazid], which IC50 [1] is on record?
Answer: Its IC50 is greater than 300 µg/mL.

Question: What about the IC50 [2] of the same compound?
Answer: The IC50 was greater than 300 µg/mL.

Question: What about the IC50 [3] of the same compound?
Answer: The IC50 was greater than 300 µg/mL.

Question: And the IC50 [4]?
Answer: The IC50 was greater than 300 µg/mL.

Question: Which “IC50, 50% inhibition … P. g.” value [5] does the source give for Cardiotoxin here?
Answer: The value was 11 µg/mL.

Question: What about the “IC50, 50% inhibition … UA159” value [6] of the same compound?
Answer: Its value is greater than 10 µg/mL.

Question: What about the “IC50, 50% inhibition … P. a.” value [7] of the same compound?
Answer: Its value is greater than 10 µg/mL.

Question: And the “IC50, 50% inhibition … S. a.” value [8]?
Answer: The value was greater than 10 µg/mL.

Question: How did the “Inhibition on proliferation of Lactobacillus reuteri” value [9, 10] turn out when `[Cl][Ag]` [AgCl] was run?
Answer: Its value is “AgCl*”.

Question: And the IC50 [5, 11]?
Answer: The IC50 was 14 µM.

Question: And the IC50 [5, 12]?
Answer: The IC50 was 14 µM.

Question: And the IC50 [6, 13]?
Answer: The IC50 was 35 µM.

Question: And the IC50 [6, 14]?
Answer: The IC50 was 35 µM.

Question: And the IC50 [7, 15]?
Answer: The IC50 was 44 µM.

Question: What about the IC50 ([7]; read-out: IC50 of single drug, Table 14, P. a., drug alone) of the same compound?
Answer: Its IC50 is 42 µM.

Question: What about the IC50 [8, 16] of the same compound?
Answer: Its IC50 is 28 µM.

Question: What about the IC50 ([8]; read-out: IC50 of single drug, Table 14, S. a., drug alone) of the same compound?
Answer: Its IC50 is 56 µM.

Question: For Lysozyme, which “IC50, 50% inhibition … P. g.” value [5] is on record?
Answer: Its value is 21 µg/mL.

Question: And the “IC50, 50% inhibition … UA159” value [6]?
Answer: Its value is greater than 100 µg/mL.

Question: And the “IC50, 50% inhibition … P. a.” value [7]?
Answer: The value was greater than 100 µg/mL.

Question: And the “IC50, 50% inhibition … S. a.” value [8]?
Answer: Its value is greater than 100 µg/mL.

Question: With `CC12CC3CC(C)(C1)CC(N)(C3)C2` [Memantine] as the compound, how does the IC50 [1] read?
Answer: The IC50 was 59 µg/mL (≈ 329 µM).

Question: And the IC50 [2]?
Answer: The IC50 was 386 µg/mL (≈ 2150 µM).

Question: And the IC50 [3]?
Answer: The IC50 was 321 µg/mL (≈ 1790 µM).

Question: And the IC50 [4]?
Answer: Its IC50 is 435 µg/mL (≈ 2430 µM).

Question: For `CC(Cc1ccc(O)c(O)c1)C(C)Cc1ccc(O)c(O)c1` (centres unmarked) [Nordihydro-guaiaretic acid], which IC50 [1] is on record?
Answer: Its IC50 is less than 30 µg/mL.

Question: And the IC50 [2]?
Answer: The IC50 was 50 µg/mL (≈ 165 µM).

Question: What about the IC50 [3] of the same compound?
Answer: Its IC50 is greater than 300 µg/mL.

Question: And the IC50 [4]?
Answer: The IC50 was 66 µg/mL (≈ 218 µM).

Question: Which results are given for `COc1ccc2cc3[n+](cc2c1OC)CCc1cc2c(cc1-3)OCO2` [Berberine]?
Answer: IC50 [1]: > 100 µg/mL; IC50 [2]: 25 µg/mL; IC50 [3]: > 100 µg/mL; IC50 [4]: > 100 µg/mL

Question: How did the “IC50, 50% inhibition … P. g.” value [5] turn out when `COc1ccc([C@@H]2Sc3ccccc3N(CCN(C)C)C(=O)[C@@H]2OC(C)=O)cc1` [Diltiagem] was run?
Answer: The value was 104 µg/mL (≈ 251 µM).

Question: What about the “IC50, 50% inhibition … UA159” value [6] of the same compound?
Answer: The value was greater than 300 µg/mL.

Question: And the “IC50, 50% inhibition … P. a.” value [7]?
Answer: The value was greater than 300 µg/mL.

Question: And the “IC50, 50% inhibition … S. a.” value [8]?
Answer: Its value is greater than 300 µg/mL.

Question: What does the source list for `CC(O)(P(=O)(O)O)P(=O)(O)O` [Etidronate]?
Answer: IC50 [1]: 46 µg/mL (≈ 223 µM); IC50 [2]: 597 µg/mL (≈ 2900 µM); IC50 [3]: > 1000 µg/mL; IC50 [4]: 350 µg/mL (≈ 1700 µM)

Question: For `[Cl][Cu][Cl]` [CuCl2], which IC50 [5, 11] is on record?
Answer: Its IC50 is 673 µM.

Question: What about the IC50 [6, 13] of the same compound?
Answer: The IC50 was 448 µM.

Question: And the IC50 [7, 15]?
Answer: The IC50 was 1690 µM.

Question: And the IC50 [8, 16]?
Answer: Its IC50 is greater than 2000 µM.

Question: `CN(C)C(=N)N=C(N)N` [Metformin] was tested. Which “Inhibition on proliferation of Lactobacillus reuteri” value ([9]; 3 to 10 times higher IC50, Table 2) did it give?
Answer: The value was “MF, Metformin*”.

Question: And the IC50 [1]?
Answer: The IC50 was 639 µg/mL (≈ 4950 µM).

Question: What about the IC50 [2] of the same compound?
Answer: The IC50 was greater than 1000 µg/mL.

Question: What about the IC50 [3] of the same compound?
Answer: The IC50 was greater than 1000 µg/mL.

Question: And the IC50 [4]?
Answer: Its IC50 is greater than 1000 µg/mL.

Question: How did the IC50 [1] turn out when `Cc1cc(N)c2ccccc2[n+]1CCCCCCCCCC[n+]1c(C)cc(N)c2ccccc21` [Dequalinium] was run?
Answer: Its IC50 is 3 µg/mL.

Question: What about the IC50 [2] of the same compound?
Answer: Its IC50 is 1 µg/mL.

Question: And the IC50 [3]?
Answer: The IC50 was greater than 10 µg/mL.

Question: And the IC50 [4]?
Answer: The IC50 was 2 µg/mL.

Question: Which results are given for `N.N.[Cl][Pt][Cl]` [Pt]?
Answer: IC50 [5, 12]: 69 µM; IC50 [6, 14]: > 100 µM

Question: Which results are given for `[Cl-].[Cl-].[Sr+2]` [SrCl2]?
Answer: Inhibition on proliferation of Lactobacillus reuteri [9, 10]: SrCl2*; IC50 [5, 11]: > 3000 µM; IC50 [6, 13]: > 3000 µM; IC50 [7, 15]: 4190 µM; IC50 [8, 16]: 3590 µM
